From patent publication US7560569B2, “Bicycloamide derivative” (Kyorin Pharmaceutical Co., Ltd, priority 2004, dated 2009)

What was measured:
[1] = target: plasma dipeptidylpeptidase IV (UniProt P27487); experiment: In vitro dipeptidylpeptidase IV inhibition (H-Gly-Pro-AMC hydrolysis, fluorometry); type: biochemical; conditions: plasma diluted 8-fold, H-Gly-Pro-AMC.HBr substrate, room temperature 20 minutes
Experimental: The concentration of free 7-amino-4-methyl-coumarin (AMC) generated by hydrolysis of H-Gly-Pro-AMC.HBr substrate by plasma dipeptidylpeptidase IV was determined by fluorometry.
A 20 μL of buffer (25 mmol/L hepes, 140 mmol/L sodium chloride, 1% bovine serum albumin, 80 mmol/L magnesium chloride hexahydrate, pH 7.4) containing each compound was added to 20 μL of plasma diluted 8-fold with saline in a well of a 96-well flat bottom plate. The plate was left at room temperature for 5 minutes and 10 μL of 0.1 mmol/L H-Gly-Pro-AMC.HBr solution was added to each well to initiate the reaction. […] Using a fluorescent plate reader, the free AMC concentration was determined by exciting the samples at 355 nm and measuring the fluorescence intensity at 460 nm.

[2] = target: T1, plasma dipeptidylpeptidase IV (Mus musculus, UniProt P28843); experiment: Inhibition of plasma dipeptidylpeptidase IV activity in mice by oral administration; type: in vivo; conditions: male ICR mice, 0.1 mg/mL at 10 mL/kg, plasma 30 minutes after administration vs before
T1 construct: The blood samples were centrifuged at 6000 rpm for 2 minutes to separate plasma; tissue Charles River Laboratories Japan; host or cells: plasma of male ICR mice
T1 sequence (P28843 37-760 limits assumed): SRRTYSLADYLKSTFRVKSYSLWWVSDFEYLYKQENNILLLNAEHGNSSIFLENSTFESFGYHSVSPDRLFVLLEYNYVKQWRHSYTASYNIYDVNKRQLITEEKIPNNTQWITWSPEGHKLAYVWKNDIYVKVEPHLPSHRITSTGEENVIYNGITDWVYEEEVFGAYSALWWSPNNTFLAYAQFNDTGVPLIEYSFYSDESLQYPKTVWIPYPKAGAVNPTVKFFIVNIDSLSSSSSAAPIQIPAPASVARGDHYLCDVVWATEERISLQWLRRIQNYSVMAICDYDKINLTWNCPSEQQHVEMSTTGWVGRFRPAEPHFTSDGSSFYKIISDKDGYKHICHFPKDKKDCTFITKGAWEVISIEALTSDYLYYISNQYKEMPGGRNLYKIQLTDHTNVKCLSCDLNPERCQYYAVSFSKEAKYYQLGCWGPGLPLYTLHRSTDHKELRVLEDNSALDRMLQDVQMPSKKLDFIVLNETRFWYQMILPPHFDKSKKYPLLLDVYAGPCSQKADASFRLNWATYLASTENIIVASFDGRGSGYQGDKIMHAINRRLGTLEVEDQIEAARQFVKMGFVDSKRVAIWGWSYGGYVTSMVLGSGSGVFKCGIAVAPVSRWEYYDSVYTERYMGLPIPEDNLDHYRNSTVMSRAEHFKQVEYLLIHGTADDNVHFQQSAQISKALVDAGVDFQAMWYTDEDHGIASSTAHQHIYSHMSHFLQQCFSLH
Experimental: Each compound was suspended in 0.3% sodium carboxymethylcellulose to a concentration of 0.1 mg/mL. The preparation was orally administered to 8-week old male ICR mice (Charles River Laboratories Japan) at a dose of 10 mL/kg. Using an EDTA 2K-treated capillary tube, blood samples were collected from the tail vein before administration and 30 minutes after administration. The blood samples were centrifuged at 6000 rpm for 2 minutes to separate plasma. […] The inhibition was determined from the decrease in the enzymatic activity from the initial activity (% inhibition={(activity before administration−activity after administration)/(activity before administration)}×100).

Structure (SMILES)	IC50 [1] [pM]	inhibition at 100 µg/mL (stock) [2] [%]
CN(C)C(=O)C12CCC(NCC(=O)N3C[C@@H](F)C[C@H]3C#N)(CC1)CC2 [Example 9, (2S,4S)-1-[[N-[4-(dimethylamino)carbonylbicyclo[2.2.2]oct-1-yl]amino]acetyl]-4-fluoropyrrolidine-2-carbonitrile]		87
CC(C)(C)NC(=O)C12CCC(NCC(=O)N3C[C@@H](F)C[C@H]3C#N)(CC1)CC2 [Example 30, (2S,4S)-1-[[N-[4-(N-2,2-dimethylethylamino)carbonylbicyclo[2.2.2]oct-1-yl]amino]acetyl]-4-fluoropyrrolidine-2-carbonitrile]		77
C=CCNC(=O)C12CCC(NCC(=O)N3C[C@@H](F)C[C@H]3C#N)(CC1)CC2 [Example 52, (2S,4S)-4-fluoro-1-[[N-[4-[N-(2-propenyl)amino]carbonylbicyclo[2.2.2]oct-1-yl]amino]acetyl]pyrrolidine-2-carbonitrile]	57	70

Second part, the compound after the results:

IC50 [1] [pM]	inhibition at 100 µg/mL (stock) [2] [%]	Structure (SMILES)
890	71	N#C[C@@H]1C[C@H](F)CN1C(=O)CNC12CCC(C(N)=O)(CC1)CC2 [Example 1, (2S,4S)-1-[[(4-carbamoylbicyclo[2.2.2]oct-1-yl)amino]acetyl]-4-fluoropyrrolidine-2-carbonitrile]
830		CN1CCN(C(=O)C23CCC(NCC(=O)N4C[C@@H](F)C[C@H]4C#N)(CC2)CC3)CC1 [Example 8, (2S,4S)-4-fluoro-1-[[N-[4-(4-methylpiperazin-1-yl)carbonylbicyclo[2.2.2]oct-1-yl]amino]acetyl]pyrrolidine-2-carbonitrile]
	66	N#C[C@@H]1C[C@H](F)CN1C(=O)CNC12CCC(C(=O)N3CCC3)(CC1)CC2 [Example 15, (2S,4S)-1-[[[4-(azetidin-1-yl)carbonylbicyclo[2.2.2]oct-1-yl]amino]acetyl]-4-fluoropyrrolidine-2-carbonitrile]
82		N#C[C@@H]1C[C@H](F)CN1C(=O)CNC12CCC(C(=O)N3CC[C@@H](F)C3)(CC1)CC2 [Example 16, (2S,4S,3′ R)-4-fluoro-1-[[N-[4-(3-fluoropyrrolidin-1-yl)carbonylbicyclo[2.2.2]oct-1-yl]amino]acetyl]pyrrolidine-2-carbonitrile]
